Laboratory results from patent US9326506B2, “Preparation method, agricultural composition and applications of natural brassinolide analogs” (CHENGDU NEWSUN CROPSCIENCE CO., LTD, priority 2012, dated 2016).

Test system: soybean
Assay: Farmland test on soybean (germination, height, fresh weight, dry weight)
Type: in vivo
Details: relative to the negative control (pure water)
Description: BR1, BR2, BR3, BR4, BR5 and BR6 were mixed into a mixture of brassinolide analogues (referred to as “BRs”, in which the weight ratio of BR1:BR2:BR3:BR4:BR5:BR6 is 0.4:0.4:0.4:0.4:0.4:98). pure water was used as a negative control, while chemically synthesized homobrassinolide (purchased from Yunda Technology Co., Ltd.) was used as a positive control. Respectively BRs and the positive control were diluted to the concentrations of 1 ppm, 0.5 ppm, 0.1 ppm, 0.05 ppm, 0.01 ppm, 0.005 ppm, 0.001 ppm, 0.0005 ppm and 0.0001 ppm. The subjects for the experimentation are soybean seeds in an experimental farmland. We sowed the soybean seeds on 9th July, surveyed the germination on 22nd July, 23rd July and 24th July, and measured the height on 5th September […].

**Q.** CC[C@@H](C(C)C)[C@H](O)[C@@H](O)[C@@H](C)[C@H]1CC[C@H]2[C@@H]3COC(=O)[C@H]4C[C@H](O)[C@H](O)C[C@]4(C)[C@H]3CC[C@]12C [homobrassinolide] was tested. Which “Effects on germination, height, fresh weight and dry weight of soybean” value did it give?
**A.** The value was “positive and different effects”.
